Reference: the NIST ThermoML archive (doi:10.1007/s10765-009-0568-4)
“And” between values parts separate entries of the source, which are not always exact repeats. Equal entries are not always repeated. ± gives the expanded uncertainty stated by the source.

Assay: molar heat capacity at constant pressure
Conditions: 101.33 kPa, Crystal

O=C([O-])c1ccccc1.[K+] [potassium benzoate]
Conditions	molar heat capacity at constant pressure
78.05 K	64.02 ± 0.61 J/K/mol
79.77 K	65.4 ± 0.62 J/K/mol
80 K	66.51 ± 0.63 J/K/mol
82.44 K	67.11 ± 0.64 J/K/mol
85 K	69.25 ± 0.65 J/K/mol
85.05 K	69.06 ± 0.65 J/K/mol
87.58 K	70.57 ± 0.66 J/K/mol
90 K	71.99 ± 0.88 J/K/mol
90.05 K	72.16 ± 0.88 J/K/mol
92.46 K	73.51 ± 0.89 J/K/mol
94.82 K	75.08 ± 0.9 J/K/mol
95 K	74.71 ± 0.9 J/K/mol
97.13 K	76.49 ± 0.91 J/K/mol
99.4 K	77.52 ± 0.91 J/K/mol
100 K	77.41 ± 0.91 J/K/mol
101.6 K	78.59 ± 0.92 J/K/mol
103.8 K	79.84 ± 0.93 J/K/mol
105 K	80.09 ± 0.93 J/K/mol
106 K	81.03 ± 0.93 J/K/mol
108.1 K	82.38 ± 0.94 J/K/mol
110 K	82.77 ± 0.94 J/K/mol
110.2 K	83.34 ± 0.94 J/K/mol
112.2 K	84.3 ± 0.95 J/K/mol
114.2 K	85.15 ± 0.95 J/K/mol
115 K	85.42 ± 0.96 J/K/mol
116.3 K	86.65 ± 0.96 J/K/mol
118.3 K	87.5 ± 0.97 J/K/mol
120 K	88.06 ± 0.97 J/K/mol
120.4 K	88.67 ± 0.97 J/K/mol
123.5 K	90.49 ± 0.98 J/K/mol
125 K	90.69 ± 0.99 J/K/mol
127.5 K	92.84 ± 1 J/K/mol
130 K	93.3 ± 1 J/K/mol
131.5 K	94.64 ± 1 J/K/mol
135 K	95.9 ± 1 J/K/mol
135.4 K	96.31 ± 1 J/K/mol
139.4 K	98.35 ± 1 J/K/mol
140 K	98.48 ± 1 J/K/mol
143.3 K	100.4 ± 1 J/K/mol
145 K	101 ± 1 J/K/mol
147.2 K	102.3 ± 1.1 J/K/mol
150 K	103.6 ± 1.1 J/K/mol
151.1 K	103.9 ± 1.1 J/K/mol
154.9 K	105.6 ± 1.1 J/K/mol
155 K	106.1 ± 1.1 J/K/mol
158.6 K	107.2 ± 1.1 J/K/mol
160 K	108.6 ± 1.1 J/K/mol
162.3 K	108.9 ± 1.1 J/K/mol
165 K	111.2 ± 1.1 J/K/mol
166 K	110.7 ± 1.1 J/K/mol
169.7 K	112.6 ± 1.1 J/K/mol
170 K	113.6 ± 1.1 J/K/mol
173.3 K	114.5 ± 1.1 J/K/mol
175 K	116.1 ± 1.1 J/K/mol
176.9 K	115.9 ± 1.1 J/K/mol
180 K	118.6 ± 1.1 J/K/mol
180.4 K	117.8 ± 1.1 J/K/mol
185 K	121 ± 1.2 J/K/mol
185.2 K	119.9 ± 1.2 J/K/mol
190 K	123.5 ± 1.2 J/K/mol
190.3 K	122.8 ± 1.2 J/K/mol
194.3 K	124.8 ± 1.2 J/K/mol
195 K	125.9 ± 1.2 J/K/mol
198.3 K	127 ± 1.2 J/K/mol
200 K	128.3 ± 1.2 J/K/mol
202.2 K	129 ± 1.2 J/K/mol
205 K	130.6 ± 1.2 J/K/mol
206.2 K	131.6 ± 1.2 J/K/mol
210 K	133 ± 1.2 J/K/mol
210.2 K	133.5 ± 1.2 J/K/mol
214.1 K	135.5 ± 1.3 J/K/mol
215 K	135.4 ± 1.3 J/K/mol
218.1 K	137.3 ± 1.3 J/K/mol
220 K	137.7 ± 1.3 J/K/mol
222.1 K	139.3 ± 1.3 J/K/mol
225 K	140 ± 1.3 J/K/mol
226.1 K	141 ± 1.3 J/K/mol
230 K	142.3 ± 1.3 J/K/mol
230.1 K	142.7 ± 1.3 J/K/mol
234 K	144.9 ± 1.3 J/K/mol
235 K	144.6 ± 1.3 J/K/mol
237.9 K	146.3 ± 1.3 J/K/mol
240 K	146.9 ± 1.3 J/K/mol
243.1 K	149 ± 1.3 J/K/mol
245 K	149.2 ± 1.3 J/K/mol
248.2 K	151.2 ± 1.3 J/K/mol
250 K	151.4 ± 1.3 J/K/mol
252.2 K	152.7 ± 1.4 J/K/mol
255 K	153.7 ± 1.4 J/K/mol
256.1 K	154.1 ± 1.4 J/K/mol
260 K	155.9 ± 1.4 J/K/mol
260.1 K	156.2 ± 1.4 J/K/mol
264.1 K	158.2 ± 1.4 J/K/mol
265 K	158.1 ± 1.4 J/K/mol
268.1 K	160.2 ± 1.4 J/K/mol
270 K	160.3 ± 1.4 J/K/mol
272.1 K	161.4 ± 1.4 J/K/mol
275 K	162.5 ± 1.4 J/K/mol
276.1 K	163.3 ± 1.4 J/K/mol
280 K	165.1 ± 1.4 J/K/mol and 164.6 ± 1.4 J/K/mol
284 K	166.4 ± 1.4 J/K/mol
285 K	166.8 ± 1.4 J/K/mol
287.9 K	168.1 ± 1.5 J/K/mol
290 K	168.9 ± 1.5 J/K/mol
291.8 K	169.9 ± 1.5 J/K/mol
295 K	171 ± 1.5 J/K/mol
295.9 K	171.5 ± 1.5 J/K/mol
298.15 K	172.3 ± 1.5 J/K/mol
299.8 K	172.8 ± 1.5 J/K/mol
300 K	173.1 ± 1.5 J/K/mol
303.7 K	174.3 ± 1.5 J/K/mol
305 K	175.2 ± 1.5 J/K/mol
307.8 K	176.1 ± 1.5 J/K/mol
310 K	177.3 ± 1.5 J/K/mol
311.7 K	177.6 ± 1.5 J/K/mol
315 K	179.3 ± 1.5 J/K/mol
315.6 K	179.5 ± 1.5 J/K/mol
319.5 K	180.7 ± 1.5 J/K/mol
320 K	181.4 ± 1.5 J/K/mol
323.5 K	182.2 ± 1.5 J/K/mol
325 K	183.4 ± 1.5 J/K/mol
327.4 K	183.7 ± 1.5 J/K/mol
330 K	185.4 ± 1.6 J/K/mol
331.4 K	185.4 ± 1.6 J/K/mol
335 K	187.4 ± 1.6 J/K/mol
335.5 K	187.1 ± 1.6 J/K/mol
339.4 K	188.7 ± 1.6 J/K/mol
340 K	189.4 ± 1.6 J/K/mol
343.5 K	190.7 ± 1.6 J/K/mol
345 K	191.4 ± 1.6 J/K/mol
346.5 K	192.2 ± 1.6 J/K/mol
349.5 K	193.4 ± 1.6 J/K/mol
350 K	193.3 ± 1.6 J/K/mol
353.5 K	195 ± 1.6 J/K/mol
355 K	195.3 ± 1.6 J/K/mol
357.5 K	196.3 ± 1.6 J/K/mol
360 K	197.2 ± 1.6 J/K/mol
361.4 K	197.9 ± 1.6 J/K/mol
365 K	199.1 ± 1.6 J/K/mol
365.3 K	199.4 ± 1.6 J/K/mol
369.2 K	200.8 ± 1.7 J/K/mol
370 K	201 ± 1.7 J/K/mol
373.3 K	202.3 ± 1.7 J/K/mol
375 K	202.9 ± 1.7 J/K/mol
377.4 K	203.7 ± 1.7 J/K/mol
380 K	204.8 ± 1.7 J/K/mol
381.4 K	205.6 ± 1.7 J/K/mol
385 K	206.6 ± 1.7 J/K/mol
385.4 K	206.8 ± 1.7 J/K/mol
389.4 K	208.1 ± 1.7 J/K/mol
390 K	208.4 ± 1.7 J/K/mol
393.4 K	209.9 ± 1.7 J/K/mol
395 K	210.3 ± 1.7 J/K/mol
397.3 K	211.1 ± 1.7 J/K/mol
